These results are taken from US9505745B2, “Enhancer of zeste homolog 2 inhibitors” (GlaxoSmithKline Intellectual Property (No.2) Limited, priority 2013, dated 2016).

Where a name gives a salt, the structure may show the parent alone.

Assay [1] has as its target T1, EZH2 within the PRC2 complex (Homo sapiens (Human), UniProt Q15910). As to the kind of experiment: EZH2 methyltransferase SPA, mononucleosome substrate (Assay Protocol 1). In kind it is biochemical. The settings on record: HeLa mononucleosome substrate, 3H-SAM, ≦10 nM approaches limit of detection. How it is done: Compounds contained herein were evaluated for their ability to inhibit the methyltransferase activity of EZH2 within the PRC2 complex. Human PRC2 complex was prepared by co-expressing each of the 5 member proteins (FLAG-EZH2, EED, SUZ12, RbAp48, AEBP2) in Sf9 cells followed by co-purification. Enzyme activity was measured in a scintillation proximity assay (SPA) where a tritiated methyl group is transferred from 3H-SAM to a lysine residue on Histone H3 of a mononucleosome, purified from HeLa cells. Mononucleosomes were captured on SPA beads and the resulting signal is read on a ViewLux plate reader.
Part A. Compound Preparation
• 1. Prepare 10 mM stock of compounds from solid in 100% DMSO. • 2. Set up an 11-point serial dilution (1:3 dilution, top concentration 10 mM) in 100% DMSO for each test compound in a 384 well plate leaving columns 6 and 18 for DMSO controls. • 3. Dispense 100 nL of compound from the dilution plate into reaction plates (Grenier Bio-One, 384-well, Cat#784075). Part B. Reagent Preparation Prepare the following solutions: • 1. 50 mM Tris-HCl, pH 8: Per 1 L of base buffer, combine 1 M Tris-HCl, pH 8 (50 mL) and distilled water (950 mL). • 2. 1× Assay Buffer: Per 10 mL of 1× Assay Buffer, combine 50 mM Tris-HCl, pH 8 (9958 uL), 1 M MgCl2 (20 uL), 2 M DTT (20 uL), and 10% Tween-20 (2 uL) to provide a final concentration of 50 mM Tris-HCl, pH 8, 2 mM MgCl2, 4 mM DTT, 0.002% Tween-20. • 3. 2× Enzyme Solution: Per 10 mL of 2× Enzyme Solution, combine 1× Assay Buffer and PRC2 complex to provide a final enzyme concentration of 10 nM. • 4. SPA Bead Suspension: Per 1 mL of SPA Bead Suspension, combine PS-PEI coated LEADSeeker beads (40 mg) and H2O (1 mL) to provide a final concentration of 40 mg/mL. • 5. 2× Substrate Solution: Per 10 mL of 2× Substrate Solution, combine 1× Assay Buffer (9728.55 uL), 800 ug/mL mononucleosomes (125 uL), 1 mM cold SAM (4 uL), and 7.02 uM 3H-SAM (142.45 uL; 0.55 mCi/mL) to provide a final concentration of 5 ug/mL nucleosomes, 0.2 uM cold SAM, and 0.05 uM 3H-SAM. • 6. 2.67× Quench/Bead Mixture: Per 10 mL of 2.67× Quench/Bead Mixture, combine ddH2O (9358 uL), 10 mM cold SAM (267 uL), 40 mg/mL Bead Suspension (375 uL) to provide a final concentration of 100 uM cold SAM and 0.5 mg/mL SPA beads. Part C. Assay Reaction in 384-well Grenier Bio-One Plates Compound Addition • 1. Dispense 100 nL/well of 100× Compound to test wells (as noted above). • 2. Dispense 100 nL/well of 100% DMSO to columns 6 & 18 for high and low controls, respectively. Assay • 1. Dispense 5 uL/well of 1× Assay Buffer to column 18 (low control reactions). • 2. Dispense 5 uL/well of 2× Enzyme Solution to columns 1-17, 19-24. • 3. Spin assay plates for ˜1 min at 500 rpm. • 4. Stack the assay plates, covering the top plate. • 5. Incubate the compound/DMSO with the enzyme for 30 min at room temperature. • 6. Dispense 5 uL/well of 2× Substrate Solution to columns 1-24. • 7. Spin assay plates for ˜1 min at 500 rpm. • 8. Stack the assay plates, covering the top plate. • 9. Incubate the assay plates at room temperature for 1 hour. Quench/Bead Addition • 1. Dispense 5 uL/well of the 3× Quench/Bead Mixture to columns 1-24. • 2. Seal the top of each assay plate with adhesive TopSeal. • 3. Spin assay plates for ˜1 min at 500 rpm. • 4. Equilibrate the plates for >20 min. Read plates • 1. Read the assay plates on the Viewlux Plate Reader utilizing the 613 nm emission filter with a 300 s read time.
Reagent addition can be done manually or with automated liquid handler. • The final DMSO concentration in this assay is 1%. • The positive control is in column 6; negative control is in column 18. • Final starting concentration of compounds is 100 µM. Results
Percent inhibition was calculated relative to the DMSO control for each compound concentration and the resulting values were fit using standard IC50 fitting parameters within the ABASE data fitting software package.

The target in assay [2] is T1, EZH2 within the PRC2 complex. As to the kind of experiment: EZH2 methyltransferase SPA, biotinylated histone H3K27 peptide substrate (Assay Protocol 2). In kind it is biochemical. The settings on record: 3H-SAM, ≦10 nM approaches limit of detection. Summed up: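 Five-member human PRC2 complex (FLAG-EZH2, EED, SUZ12, RbAp48, AEBP2) co-expressed in Sf9 cells, 1 nM final, with 10 uM biotinylated H3K27 peptide, 0.15 uM 3H-SAM plus 2.85 uM cold SAM, pH 8, 60 min at rt. Quenched with cold SAM; SPA signal; IC50 from 11-point curves vs DMSO.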

T1 sequence (Q15910 whole entry): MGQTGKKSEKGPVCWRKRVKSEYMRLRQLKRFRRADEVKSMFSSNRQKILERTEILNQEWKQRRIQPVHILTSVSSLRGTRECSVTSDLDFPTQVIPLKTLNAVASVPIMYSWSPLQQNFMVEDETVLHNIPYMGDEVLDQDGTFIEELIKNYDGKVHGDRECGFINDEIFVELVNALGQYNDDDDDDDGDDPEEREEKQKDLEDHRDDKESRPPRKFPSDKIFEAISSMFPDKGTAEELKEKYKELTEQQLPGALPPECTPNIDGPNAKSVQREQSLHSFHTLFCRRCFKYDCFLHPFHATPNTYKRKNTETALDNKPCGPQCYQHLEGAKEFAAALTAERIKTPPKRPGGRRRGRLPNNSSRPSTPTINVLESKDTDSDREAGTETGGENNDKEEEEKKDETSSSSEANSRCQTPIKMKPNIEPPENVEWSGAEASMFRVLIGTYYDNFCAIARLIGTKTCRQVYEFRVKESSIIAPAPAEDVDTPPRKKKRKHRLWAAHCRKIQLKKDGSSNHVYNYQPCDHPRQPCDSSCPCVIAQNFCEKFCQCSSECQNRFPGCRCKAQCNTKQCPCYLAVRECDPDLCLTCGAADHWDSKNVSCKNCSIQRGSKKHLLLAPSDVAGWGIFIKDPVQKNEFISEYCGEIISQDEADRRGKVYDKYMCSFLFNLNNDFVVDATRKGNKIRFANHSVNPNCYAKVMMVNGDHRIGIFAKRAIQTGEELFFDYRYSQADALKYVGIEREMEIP
T1 sequence (O75530 whole entry partner): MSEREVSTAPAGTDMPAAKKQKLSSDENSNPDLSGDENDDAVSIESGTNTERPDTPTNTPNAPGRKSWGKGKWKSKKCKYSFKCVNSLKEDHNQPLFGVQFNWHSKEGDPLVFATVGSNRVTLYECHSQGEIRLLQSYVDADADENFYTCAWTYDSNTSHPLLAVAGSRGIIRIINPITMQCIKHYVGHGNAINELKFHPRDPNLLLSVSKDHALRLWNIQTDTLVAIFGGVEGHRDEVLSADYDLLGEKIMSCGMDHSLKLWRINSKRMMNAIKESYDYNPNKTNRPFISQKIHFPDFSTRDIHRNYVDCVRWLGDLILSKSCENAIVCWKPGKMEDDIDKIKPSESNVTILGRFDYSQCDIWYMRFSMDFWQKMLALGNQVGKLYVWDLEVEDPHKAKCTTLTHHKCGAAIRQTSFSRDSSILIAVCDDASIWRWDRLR
T1 sequence (Q15022 whole entry partner): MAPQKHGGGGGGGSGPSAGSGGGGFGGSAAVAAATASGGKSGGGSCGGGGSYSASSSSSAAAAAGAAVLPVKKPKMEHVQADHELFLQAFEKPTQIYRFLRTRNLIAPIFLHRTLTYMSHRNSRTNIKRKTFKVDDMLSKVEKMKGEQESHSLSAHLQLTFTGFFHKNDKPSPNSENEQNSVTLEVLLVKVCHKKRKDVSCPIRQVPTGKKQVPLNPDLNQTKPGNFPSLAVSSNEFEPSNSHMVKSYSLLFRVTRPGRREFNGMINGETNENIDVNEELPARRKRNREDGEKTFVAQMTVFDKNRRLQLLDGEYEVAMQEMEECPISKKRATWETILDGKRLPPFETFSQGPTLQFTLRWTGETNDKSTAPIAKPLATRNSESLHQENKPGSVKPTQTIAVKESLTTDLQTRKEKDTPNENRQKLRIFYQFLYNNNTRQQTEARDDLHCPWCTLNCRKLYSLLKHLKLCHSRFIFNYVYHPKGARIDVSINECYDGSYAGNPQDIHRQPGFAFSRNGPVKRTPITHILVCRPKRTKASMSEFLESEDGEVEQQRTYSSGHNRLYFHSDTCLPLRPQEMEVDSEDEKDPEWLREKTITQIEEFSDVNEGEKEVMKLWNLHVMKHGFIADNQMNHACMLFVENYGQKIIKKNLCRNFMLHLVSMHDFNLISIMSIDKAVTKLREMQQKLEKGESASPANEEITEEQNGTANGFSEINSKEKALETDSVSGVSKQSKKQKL
T1 sequence (Q09028 whole entry partner): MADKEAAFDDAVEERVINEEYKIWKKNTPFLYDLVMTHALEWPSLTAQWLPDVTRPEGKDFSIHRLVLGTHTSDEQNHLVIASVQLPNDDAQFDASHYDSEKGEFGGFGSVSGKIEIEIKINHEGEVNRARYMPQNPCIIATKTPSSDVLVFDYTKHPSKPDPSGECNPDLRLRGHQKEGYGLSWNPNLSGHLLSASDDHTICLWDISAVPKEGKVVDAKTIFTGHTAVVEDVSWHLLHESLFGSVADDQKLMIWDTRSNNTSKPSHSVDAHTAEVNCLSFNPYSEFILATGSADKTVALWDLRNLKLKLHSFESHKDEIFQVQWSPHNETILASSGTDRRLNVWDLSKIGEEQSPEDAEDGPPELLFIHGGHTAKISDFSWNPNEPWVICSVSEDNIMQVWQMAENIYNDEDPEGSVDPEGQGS
T1 sequence (Q6ZN18 whole entry partner): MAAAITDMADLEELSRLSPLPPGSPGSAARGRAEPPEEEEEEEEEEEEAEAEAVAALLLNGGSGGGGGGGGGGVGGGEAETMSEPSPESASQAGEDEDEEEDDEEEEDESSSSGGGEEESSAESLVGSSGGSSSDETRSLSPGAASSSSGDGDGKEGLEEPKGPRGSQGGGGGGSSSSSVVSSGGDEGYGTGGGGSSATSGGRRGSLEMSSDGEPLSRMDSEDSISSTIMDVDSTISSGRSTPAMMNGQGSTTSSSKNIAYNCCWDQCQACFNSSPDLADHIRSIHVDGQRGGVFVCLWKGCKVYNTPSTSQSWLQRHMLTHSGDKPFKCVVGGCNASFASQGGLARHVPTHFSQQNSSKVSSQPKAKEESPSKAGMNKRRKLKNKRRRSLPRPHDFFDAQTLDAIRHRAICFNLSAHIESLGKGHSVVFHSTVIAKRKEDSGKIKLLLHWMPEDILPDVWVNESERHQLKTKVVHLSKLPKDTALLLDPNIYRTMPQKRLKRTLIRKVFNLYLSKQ

As a reminder, the IC50 is the concentration that gives 50% inhibition. A high value points to lower potency. Take `CCN(c1scc(C(=O)NCc2c(C)cc(C)[nH]c2=O)c1C)[C@H]1CC[C@H](N(C)C)CC1` [Example 8, N-((4,6-dimethyl-2-oxo-1,2-dihydropyridin-3-yl)methyl)-5-(((trans)-4-(dimethylamino)cyclohexyl)(ethyl)amino)-4-methylthiophene-3-carboxamide]: the 50% inhibitory concentration (IC50) in assay [1] was no more than 10 nM; in assay [2], 13 nM.

For `CCN(c1csc(C(=O)NCc2c(C)cc(C)[nH]c2=O)c1C)C1CCOCC1` [Example 2, N-((4,6-Dimethyl-2-oxo-1,2-dihydropyridin-3-yl)methyl)-4-(ethyl(tetrahydro-2H-pyran-4-yl)amino)-3-methylthiophene-2-carboxamide], the results for the half-inhibitory concentration (IC50) in assay [1] and in assay [2] were 63 nM and 200 nM, respectively.

Take `CCCc1cc(C)[nH]c(=O)c1CNC(=O)c1csc(N(CC)[C@H]2CC[C@H](N(C)C)CC2)c1C` [Example 16, 5-(((trans)-4-(Dimethylamino)cyclohexyl)(ethyl)amino)-4-methyl-N-((6-methyl-2-oxo-4-propyl-1,2-dihydropyridin-3-yl)methyl)thiophene-3-carboxamide]: the half-inhibitory concentration (IC50) in assay [1] is no more than 10 nM; in assay [2] it was 25 nM.

Regarding `Cc1cc(C)c(CNC(=O)c2csc(N3CCCC3C)c2C)c(=O)[nH]1` (stereo not drawn) [Example 25, N-((4,6-Dimethyl-2-oxo-1,2-dihydropyridin-3-yl)methyl)-4-methyl-5-(2-methylpyrrolidin-1-yl)thiophene-3-carboxamide], the IC50 in assay [1] is 100 nM; in assay [2], 630 nM.

For `Cc1cc(C)c(CNC(=O)c2csc(C(C)N3CCC(N(C)C)CC3)c2)c(=O)[nH]1` (stereo not drawn) [Example 13, N-((4,6-dimethyl-2-oxo-1,2-dihydropyridin-3-yl)methyl)-5-(1-(4-(dimethylamino)piperidin-1-yl)ethyl)thiophene-3-carboxamide], the IC50 worked out at 316 nM in assay [1] and 2000 nM in assay [2].

Take `CCN(c1csc(C(=O)NCc2c(C)cc(C)[nH]c2=O)c1C)[C@H]1CC[C@@H](N(C)C)CC1` [Example 5, N-((4,6-dimethyl-2-oxo-1,2-dihydropyridin-3-yl)methyl)-4-(((cis)-4-(dimethylamino)cyclohexyl)(ethyl)amino)-3-methylthiophene-2-carboxamide]: the figures for the concentration for half-maximal inhibition (IC50) in assay [1] and in assay [2] were 32 nM and 50 nM, respectively.

Consider `CCN(c1csc(C(=O)NCc2c(C)cc(C)[nH]c2=O)c1C)[C@H]1CC[C@H](N(C)C)CC1` [Example 4, N-((4,6-dimethyl-2-oxo-1,2-dihydropyridin-3-yl)methyl)-4-(((trans)-4-(dimethylamino)cyclohexyl)(ethyl)amino)-3-methylthiophene-2-carboxamide], for which the half-inhibitory concentration (IC50) was determined as 16 nM in assay [1] and 25 nM in assay [2].

As to `CCN(c1scc(C(=O)NCc2c(C)cc(C)[nH]c2=O)c1C)C1CCNCC1` [Example 12, N-((4,6-dimethyl-2-oxo-1,2-dihydropyridin-3-yl)methyl)-5-(ethyl(piperidin-4-yl)amino)-4-methylthiophene-3-carboxamide hydrochloride], the IC50 in assay [1] was no more than 10 nM; in assay [2], 20 nM.

With `CCN(c1scc(C(=O)NCc2c(C)cc(C)[nH]c2=O)c1C)C1CCOCC1` [Example 6, N-((4,6-dimethyl-2-oxo-1,2-dihydropyridin-3-yl)methyl)-5-(ethyl(tetrahydro-2H-pyran-4-yl)amino)-4-methylthiophene-3-carboxamide], the IC50 in assay [1] and in assay [2] was 16 nM in each case.

Turning to `CCN(c1scc(C(=O)NCc2c(OC)cc(C)[nH]c2=O)c1C)[C@H]1CC[C@H](N(C)C)CC1` [Example 18, 5-(((trans)-4-(Dimethylamino)cyclohexyl)(ethyl)amino)-N-((4-methoxy-6-methyl-2-oxo-1,2-dihydropyridin-3-yl)methyl)-4-methylthiophene-3-carboxamide], the IC50 in assay [1] is no more than 10 nM; in assay [2], 13 nM.

In the case of `Cc1cc(C)c(CNC(=O)c2scc(OC(C)C)c2C)c(=O)[nH]1` [Example 1, N-((4,6-dimethyl-2-oxo-1,2-dihydropyridin-3-yl)methyl)-4-isopropoxy-3-methylthiophene-2-carboxamide], the half-maximal inhibitory concentration (IC50) in assay [1] stood at 3160 nM; in assay [2], 25100 nM.

For `CCN(c1scc(C(=O)NCc2c(C(F)(F)F)cc(C)[nH]c2=O)c1C)C1CCOCC1` [Example 15, 5-(Ethyl(tetrahydro-2H-pyran-4-yl)amino)-4-methyl-N-((6-methyl-2-oxo-4-(trifluoromethyl)-1,2-dihydropyridin-3-yl)methyl)thiophene-3-carboxamide], the results for the IC50 in assay [1] and in assay [2] were 79 nM and 630 nM, respectively.

On to `CCN(c1sc(Br)c(C(=O)NCc2c(C)cc(C)[nH]c2=O)c1C)C1CCOCC1` [Example 19, 2-Bromo-N-((4,6-dimethyl-2-oxo-1,2-dihydropyridin-3-yl)methyl)-5-(ethyl(tetrahydro-2H-pyran-4-yl)amino)-4-methylthiophene-3-carboxamide], for which the IC50 in assay [1] was no more than 10 nM; in assay [2], 20 nM.

For the compound `CCN(c1ccc(C(=O)NCc2c(C)cc(C)[nH]c2=O)s1)C1CCOCC1` [Example 30, N-((4,6-Dimethyl-2-oxo-1,2-dihydropyridin-3-yl)methyl)-5-(ethyl(tetrahydro-2H-pyran-4-yl)amino)thiophene-2-carboxamide], the half-inhibitory concentration (IC50) in assay [1] is 39800 nM; in assay [2], no less than 100000 nM.

On to `Cc1cc(C)c(CNC(=O)c2csc(C(C)N3CCC(N(C)C)CC3)c2C)c(=O)[nH]1` (stereo not drawn) [Example 27, N-((4,6-dimethyl-2-oxo-1,2-dihydropyridin-3-yl)methyl)-5-(1-(4-(dimethylamino)piperidin-1-yl)ethyl)-4-methylthiophene-3-carboxamide hydrochloride], for which the results for the half-inhibitory concentration (IC50) in assay [1] and in assay [2] were 31 nM and 63 nM, respectively.
